Assay results published in patent publication US10421774B2 (priority 2016, dated 2019).
pEC50: −log10 of the molar value. Read-outs that look alike come from different tables or passages of the source.

How the values were obtained:
[1] = tested on: T332S/V362I/Pr R41G virus; assay: microbe, parasite or virus in culture; format: cell-based, HIV-1; conditions: for Fold wt: genotype T332S/V362I/Pr41G, sensitivity relative to wt virus; for EC90: Human immunodeficiency virus 1, read-out: T332S/V362I/prR41G EC90
In short: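 Renilla luciferase NL4-3 reporter virus (Gag P373S background) carrying Gag T332S/V362I plus protease R41G, inoculum normalized by luciferase signal, infected MT-2 cells (10,000/well). Compounds 3-fold diluted, 1% DMSO final. After 4–5 days at 37 °C, virus yield measured as Renilla luciferase activity in a multiple-cycle assay.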

[2] = tested on: T332S site directed mutant virus; assay: Anti-viral sensitivity of site directed mutants, T332S; format: cell-based, HIV-1; conditions: genotype T332S, sensitivity relative to wt virus
Excerpt: (§1) Viruses. NLRepRluc virus contains the Renilla luciferase marker in place of the viral nef gene. The proviral plasmid pNLRepRluc was constructed at Bristol-Myers Squibb, starting from a proviral NL4-3 clone (B subtype) that was obtained from the NIH AIDS Research and Reference Reagent Program. The parental recombinant wild type (WT) virus (NLRepRlucP373S) was derived from NLRepRluc and contains the additional substitution of P373 for serine in Gag (within the SP1 spacer), the most common 373 variation in subtype B. Other recombinant viruses (A364V, V370A/ΔT371 and the “T3325 triple” (T332S/V362I+HIV-1 protease R41G)) were generated by site-directed mutagenesis of plasmid pNLRepRlucP373S to introduce those amino acid substitutions in Gag and protease. […] Titers of virus stocks were determined using a luciferase assay (Dual-Luciferase® Reporter Assay System, Promega, Milwaukee, Wis., USA) endpoint.
(§2) Multiple cycle drug susceptibility assay. […] After 4-5 day incubation at 37° C./CO2, virus yields were determined by Renilla luciferase activity (Dual-Luciferase® Reporter Assay System, Promega). The endpoint luminescence was detected on a Wallac Trilux (PerkinElmer).
(§3) Starting from wt virus, the HIV protease R41G substitution was detected in one of three in vitro selections for resistance to the MI compound above along with Gag V362I and Gag T332S. […]

[3] = tested on: V362I site directed mutant virus; assay: Anti-viral sensitivity of site directed mutants, V362I; format: cell-based, HIV-1; conditions: genotype V362I, sensitivity relative to wt virus
Excerpt: as §1, §2, §3

[4] = tested on: HIV protease R41G site directed mutant virus; assay: Anti-viral sensitivity of site directed mutants, HIV protease R41G; format: cell-based, HIV-1; conditions: genotype HIV protease R41G, sensitivity relative to wt virus
Excerpt: as §1, §2, §3

[5] = tested on: T332S/V362I site directed mutant virus; assay: Anti-viral sensitivity of site directed mutants, T332S/V362I; format: cell-based, HIV-1; conditions: genotype T332S/V362I, sensitivity relative to wt virus
Excerpt: as §1, §2, §3

[6] = tested on: V362I/prR41G site directed mutant virus; assay: Anti-viral sensitivity of site directed mutants, V362I/prR41G; format: cell-based, HIV-1; conditions: genotype V362I/prR41G, sensitivity relative to wt virus
Excerpt: as §1, §2, §3

[7] = tested on: T332S/prR41G site directed mutant virus; assay: Anti-viral sensitivity of site directed mutants, T332S/prR41G; format: cell-based, HIV-1; conditions: genotype T332S/prR41G, sensitivity relative to wt virus
Excerpt: as §1, §2, §3

gag V370A/ΔT371 virus = assay: microbe, parasite or virus in culture; format: cell-based, HIV-1; conditions: for EC90: Human immunodeficiency virus 1, read-out: V370A/ΔT371 EC90
In short: (§4)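 Multiple-cycle assay in MT-2 cells infected with Renilla luciferase NL4-3 (Gag P373S background) carrying site-directed Gag A364V or V370A/ΔT371 changes, inocula normalized by luciferase signal. 10,000 cells/well, 3-fold compound dilutions, 1% DMSO, 4–5 days at 37°C; yield read as Renilla luciferase.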

[8] = tested on: A364V site directed mutant virus; assay: microbe, parasite or virus in culture; format: cell-based, HIV-1; conditions: for EC90: Human immunodeficiency virus 1, read-out: A364V EC90
In short: as §4

[9] = tested on: NLRepRlucP373S recombinant wild type (WT) virus; assay: microbe, parasite or virus in culture; format: cell-based, HIV-1
In short: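 MT-2 cells infected with NLRepRlucP373S Renilla luciferase reporter virus (NL4-3, Gag P373S), inocula normalized by luciferase signal; compounds 3-fold serially diluted, 1% DMSO final. Virus yield read by Renilla luciferase after 4-5 days at 37 °C. EC50/EC90 from median effect equation; background = signal at NFV 3 μM.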

HIV-1 strain NL4-4 virus = assay: Selection for resistance to the MI compound, EC50 for the starting virus; format: cell-based; conditions: Human immunodeficiency virus 1, read-out: EC50 for this virus
Excerpt: T332sN362I/Pr R41G (N14.3, B Clade) virus′ was obtained as follows: Selection for resistance of HIV-1 strain […] virus with the HIV maturation inhibitor (MI) compound
At passage 8 virus was harvested and sequenced.

[10] = tested on: viruses that contain T332S and HIV protease R41G combinations, with and without V362I; assay: Anti-viral sensitivity of site directed mutants, single and double combinations summarised in text; format: cell-based, HIV-1; conditions: viruses with only a single change
Excerpt: Starting from wt virus, the HIV protease R41G substitution was detected in one of three in vitro selections for resistance to the MI compound above along with Gag V362I and Gag T332S. R41G is not a primary PI resistance substitution^i and is not present in the LANL database (2010). There is a single report of R41G associated with in vitro selection for resistance to an investigational PI^ii. […] A related change, R41K, is a common subtype B polymorph (27% of LANL database), and R41K may be involved in the emergence of protease resistance to an investigational protease inhibitor.^iii R41 is located in a loop proximal to the HIV-1 protease substrate binding site, and this change might act allosterically to facilitate closing the protease active site pocket over the substrate, thereby allowing catalysis. It might be that R41G alters the dynamics of the loop motion and the final positioning of the loop, which could cause the active site to better recognize the primary MI compound (above)-selected changes (V362I/T332S). An analysis of the V362I/T332S/Pr R41G substitutions, and their effects on MI compound susceptibility and viral growth, are described in the Table 1 below:
Viruses were constructed that contain T332S and HIV protease R41G combinations, with and without V362I.). […]

[11] = Human immunodeficiency virus 1, read-out: WT EC50

C=C(C)[C@@H]1CC[C@]2(C(=O)O)CC[C@]3(C)[C@H](CC[C@@H]4[C@@]5(C)CC[C@H](OC(=O)CC(C)(C)C(=O)O)C(C)(C)[C@@H]5CC[C@]43C)[C@@H]12 [BVM, 3β-(3-carboxy-3-methyl-butanoyloxy) lup-20(29)-en-28-oic acid]
Fold wt [1]: 10
Fold wt [2]: 23
Fold wt [3]: 0.6
Fold wt [4]: 1.9
Fold wt [5]: 3.1
Fold wt [6]: 3.9
Fold wt [7]: 4.2

C=C(C)[C@@H]1CC[C@]2(NCCN3CCS(=O)(=O)CC3)CC[C@]3(C)[C@H](CC[C@@H]4[C@@]5(C)CC=C(C6=CCC(CCOc7ccnc(Cl)c7)(C(=O)O)CC6)C(C)(C)[C@@H]5CC[C@]43C)[C@@H]12 (stereo partly drawn) [Example A35, 1-(2-((2-chloropyridin-4-yl)oxy)ethyl)-4-((1R,3aS,5aR,5bR,7aR,11aS,11bR,13aR,13bR)-3a-((2-(1,1-dioxidothiomorpholino)ethyl)amino)-5a,5b,8,8,11a-pentamethyl-1-(prop-1-en-2-yl)-2,3,3a,4,5,5a,5b,6,7,7a,8,11,11a,11b,12,13,13a,13b-octadecahydro-1H-cyclopenta[a]chrysen-9-yl)cyclohex-3-ene-1-carboxylic acid]
pEC50 (gag V370A/ΔT371 virus; Human immunodeficiency virus 1, MT2, read-out: V370A/ΔT371 EC50): 5.52
pEC50 ([8]; Human immunodeficiency virus 1, MT2, read-out: A364V EC50): 6.63
pEC50 ([1]; Human immunodeficiency virus 1, MT2, read-out: T332S/V362I/pr41G EC50): < 7.30
pEC50 ([9]; Human immunodeficiency virus 1, MT2, read-out: WT EC50): > 7.30

C=C(C)[C@@H]1CC[C@]2(NCCN3CCS(=O)(=O)CC3)CC[C@]3(C)[C@H](CC[C@@H]4[C@@]5(C)CC=C(c6ccc(C(=O)O)cc6)C(C)(C)[C@@H]5CC[C@]43C)[C@@H]12 [MI compound]
Fold wt [1]: 217
pEC50 (HIV-1 strain NL4-4 virus): 8.70
Fold wt [2]: 1.9
Fold wt [3]: 2.2
Fold wt [4]: 1.5
Fold wt [5]: 5.7
Fold wt [6]: 9.3
Fold wt [7]: 6.1
fold less sensitive [10]: 2 fold

C=C(C)[C@@H]1CC[C@]2(NCCN3CCS(=O)(=O)CC3)CC[C@]3(C)[C@H](CC[C@@H]4[C@@]5(C)CC=C(C6=CCC(COCc7ccccc7C#N)(C(=O)O)CC6)C(C)(C)[C@@H]5CC[C@]43C)[C@@H]12 (stereo partly shown) [reference compound]
EC90 (gag V370A/ΔT371 virus): 2420 nM
EC90 [8]: 228 nM
EC90 [1]: 2420 nM
pEC50 [9, 11]: 8.52

C=C(C)[C@@H]1CC[C@]2(NCCN3CCS(=O)(=O)CC3)CC[C@]3(C)[C@H](CC[C@@H]4[C@@]5(C)CC=C(C6=CCC(COCc7ncccc7C#N)(C(=O)O)CC6)C(C)(C)[C@@H]5CC[C@]43C)[C@@H]12 (stereo partly shown) [reference compound]
EC90 (gag V370A/ΔT371 virus): 1460 nM
EC90 [8]: 340 nM
EC90 [1]: 1460 nM
pEC50 [9, 11]: 8.70
